Results taken from patent US20080293775A1, “Substituted Diphenylethers, -Amines, -Sulfides and -Methanes for the Treatment of Respiratory Disease” (ASTRAZENECA AB, priority 2005, published 2008).

target: T1, rhCRTh2 (Homo sapiens, UniProt Q9Y5Y4); experiment: Ligand binding assay ([3H]PGD2, SPA beads, HEK cell membranes); conditions: [3H]PGD2 binding to membranes of HEK cells expressing rhCRTh2/Gα16, SPA, 2 hours at RT; read-out: pIC50 value (converted)
T1 construct: expressed in transfected cells; host or cells: HEK cells (membrane preparation)
T1 sequence (Q9Y5Y4 1-395): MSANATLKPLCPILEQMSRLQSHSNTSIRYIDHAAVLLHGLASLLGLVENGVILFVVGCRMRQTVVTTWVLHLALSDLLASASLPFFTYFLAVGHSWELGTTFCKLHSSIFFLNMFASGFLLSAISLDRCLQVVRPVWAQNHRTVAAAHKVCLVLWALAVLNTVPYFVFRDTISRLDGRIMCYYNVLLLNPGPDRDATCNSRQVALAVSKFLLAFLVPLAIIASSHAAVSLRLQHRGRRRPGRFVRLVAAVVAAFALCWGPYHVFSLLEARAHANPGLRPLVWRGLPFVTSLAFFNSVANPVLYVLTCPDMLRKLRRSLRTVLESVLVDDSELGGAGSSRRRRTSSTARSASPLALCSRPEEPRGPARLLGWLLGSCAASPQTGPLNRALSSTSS
Protocol: [^3H]PGD2 was purchased from Perkin Elmer Life Sciences with a specific activity of 100-210 Ci/mmol. All other chemicals were of analytical grade.
HEK cells expressing rhCRTh2/Gα16 were routinely maintained in DMEM containing 10% Foetal Bovine Serum (HyClone), 1 mg/ml geneticin, 2 mM L-glutamine and 1% non-essential amino acids. For the preparation of membranes, the adherent transfected HEK cells were grown to confluence in two layer tissue culture factories (Fisher, catalogue number TKT-170-070E). Maximal levels of receptor expression were induced by addition of […] sodium butyrate for the last 18 hours of culture. The adherent cells were washed once with phosphate buffered saline (PBS, 50 ml per cell factory) and detached by the addition of 50 ml per cell factory of ice-cold membrane homogenisation buffer [20 mM HEPES (pH 7.4), 0.1 mM dithiothreitol, 1 mM EDTA, 0.1M phenyl methyl sulphonyl fluoride and 100 μg/ml bacitracin]. Cells were pelleted by centrifugation at 220×g for 10 minutes at 4° C., re-suspended in half the original volume of fresh membrane homogenisation buffer and disrupted using a Polytron homogeniser for 2×20 second bursts keeping the tube in ice at all times. […] The final pellet was re-suspended in 4 ml of membrane homogenisation buffer per cell factory used and the protein content determined. […]
All assays were performed in Corning clear bottomed, white 96-well NBS plates (Fisher). […] (The optimum coating concentrations were determined for each batch of membranes) The beads were pelleted by centrifugation (800×g for 7 minutes at 4° C.), washed once with assay buffer (50 mM HEPES pH 7.4 containing 5 mM magnesium chloride) and finally re-suspended in assay buffer at a bead concentration of 10 mg/ml. […]
Compounds and DK-PGD2 were dissolved in DMSO and diluted in the same solvent to 100× the required final concentration. […] The assay plate was incubated at RT for 2 hours and counted on a Wallac Microbeta liquid scintillation counter (1 minute per well).

IC50 [nM] | SMILES
158 | CS(=O)(=O)c1ccc(Sc2cc(Cl)ccc2OCc2nnn[nH]2)c(Cl)c1 [Example 4]
158 | CC(=O)NS(=O)(=O)Cc1ccc(Cl)cc1Oc1ccc(S(C)(=O)=O)cc1Cl [Example 6, N-({4-chloro-2-[2-chloro-4-(methylsulfonyl)phenoxy]benzyl}sulfonyl)acetamide]
141 | CS(=O)(=O)NC(=O)Cc1ccc(Cl)c(Oc2ccc(S(C)(=O)=O)cc2Cl)c1 [Example 9, 2-{4-chloro-3-[2-chloro-4-(methylsulfonyl)phenoxy]phenyl}-N-(methylsulfonyl)acetamide]
